Reference: US10959986B2, “Inhibitors of indoleamine 2,3-dioxygenase and methods of their use” (BRISTOL-MYERS SQUIBB COMPANY, priority 2018, dated 2021)
Read-outs that look alike come from different tables or passages of the source.

Biological target: T1, indoleamine 2,3-dioxygenase (IDO) (Homo sapiens, UniProt P14902)
T1 construct: media containing IFNγ (#285-IF/CF, R&D Systems) at a final concentration of 25 ng/mL; endogenous in cells; host or cells: HeLa (ATCC CCL-2), induced with IFN-gamma
Assay: HeLa cell-based indoleamine 2,3-dioxygenase (IDO) assay
Conditions: HeLa cells with IFNγ 25 ng/mL, 48 hour incubation, kynurenine production
Experimental: Assessment of Inhibitor Activity in HeLa Cell-Based Indoleamine 2,3-Dioxygenase (IDO) Assay.
HeLa (ATCCR CCL-2) cells were obtained from the ATCC® and cultured in Dulbecco's Modified Eagle Medium supplemented with 4.5 g/L glucose, […] L-glutamine and […] (#10-013-CV, Corning), 2 mM L-alanyl-L-glutamine dipeptide (#35050-061, Gibco), 100U/mL penicillin, 100 µg/mL streptomycin (#SV30010, HyClone) and 10% fetal bovine serum (#SH30071.03 HyClone). Cells were maintained in a humidified incubator at 37° C. in 5% CO2.
IDO activity was assessed as a function of kynurenine production as follows: HeLa cells were seeded in a 96-well culture plate at a density of 5,000 cells/well and allowed to equilibrate overnight. After 24 hours, the media was aspirated and replaced with media containing IFNγ (#285-IF/CF, R&D Systems) at a final concentration of 25 ng/mL. A serial dilution of each test compound was added to the cells in a total volume of 200 μL of culture medium. After a further 48 hour incubation, 170 μL of supernatant was transferred from each well to a fresh 96-well plate. 12.1 μL of 6. IN trichloroacetic acid (#T0699, Sigma-Aldrich) was added to each well and mixed, followed by incubation at 65° C. for 20 minutes to hydrolyze N-formylkynurenine, the product of indoleamine 2,3-dioxygenase, to kynurenine. The reaction mixture was then centrifuged for 10 mins at 500×g to sediment the precipitate. 100 μL of the supernatant was transferred from each well to a fresh 96-well plate. 100 μl of 2% (w/v) p-dimethylaminobenzaldehyde (#15647-7, Sigma-Aldrich) in acetic acid (#A6283, Sigma-Aldrich) was added to each well mixed and incubated at room temperature for 20 mins. Kynurenine concentrations were determined by measuring absorbance at 480 nm and calibrating against an L-kynurenine (#K8625, Sigma-Aldrich) standard curve using a SPECTRAMAX® M2e microplate reader (Molecular Devices). The percentage activity at each inhibitor concentration was determined and IC50 values assessed using nonlinear regression.

[1] = read-out: IDO Hela IC50 potency class (A < 50, B < 250, C < 2000)

T1 sequence (P14902 whole entry): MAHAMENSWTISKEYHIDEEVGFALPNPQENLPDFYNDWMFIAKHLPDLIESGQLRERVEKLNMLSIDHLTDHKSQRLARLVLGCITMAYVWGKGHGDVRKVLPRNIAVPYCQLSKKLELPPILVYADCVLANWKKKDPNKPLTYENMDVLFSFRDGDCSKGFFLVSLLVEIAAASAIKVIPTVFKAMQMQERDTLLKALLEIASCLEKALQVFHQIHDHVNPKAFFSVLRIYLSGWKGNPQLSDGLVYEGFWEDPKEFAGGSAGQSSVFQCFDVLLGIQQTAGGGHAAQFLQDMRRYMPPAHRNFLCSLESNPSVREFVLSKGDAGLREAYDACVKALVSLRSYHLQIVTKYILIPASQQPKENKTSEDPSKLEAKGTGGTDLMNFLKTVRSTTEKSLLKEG

IC50 (read-out: IDO Hela IC50) [nM]	IC50 [1] [nM]	SMILES
10		CC[C@H](CC(=O)O)c1ccc(-c2cnn(C)c2)c(Nc2ccc(Cl)cc2F)c1 (single isomer, unassigned) [Example 2]
40		CC[C@H](CC(=O)O)c1ccc(-c2cnn(C)c2)c(Nc2ccc(F)cc2)c1 (single isomer, unassigned) [Example 3]
10		CC[C@H](CC(=O)O)c1ccc(-c2cnn(C)c2)c(Nc2ccc(Cl)cc2)c1 (single isomer, unassigned) [Example 4]
470		CC[C@H](CC(=O)O)c1ccc(-c2cnn(C)c2)c(Nc2ccc(Cl)cn2)c1 (single isomer, unassigned) [Example 6]
380		CC[C@H](CC(=O)O)c1ccc(-c2cnn(C)c2)c(Nc2cccc(F)c2)c1 (single isomer, unassigned) [Example 8]
40		CC[C@H](CC(=O)O)c1ccc(-c2cnn(C)c2)c(Nc2ccc(C)cc2)c1 (single isomer, unassigned) [Example 10]
≥ 1000	250 to 2000	CCc1ncc(Nc2cc([C@H](CC)CC(=O)O)ccc2-c2cnn(C)c2)cn1 (single isomer, unassigned) [Example 13]
70		CC[C@H](CC(=O)O)c1ccc(-c2cn[nH]c2)c(Nc2ccc(Cl)cc2)c1 (single isomer, unassigned) [Example 18]
30		CC[C@H](CC(=O)O)c1ccc(-c2nc(-c3ccccc3)cs2)c(Nc2ccc(Cl)cc2)c1 (single isomer, unassigned) [Example 20]
≥ 1000	250 to 2000	CC[C@H](CC(=O)O)c1ccc(-c2nccs2)c(Nc2ccc(Cl)cc2)c1 (single isomer, unassigned) [Example 21]
≥ 1000	250 to 2000	CC[C@H](CC(=O)O)c1ccc(-c2cnn(C)c2)c(NC(=O)Nc2ccc(Cl)cc2F)c1 (single isomer, unassigned) [Example 23]
≥ 1000	250 to 2000	CC[C@H](CC(=O)O)c1ccc(-c2cnn(C(C)C)c2)c(NC(=O)Nc2ccc(Cl)cc2F)c1 (single isomer, unassigned) [Example 24]
20		CCOc1ncc(Nc2cc([C@@H](CC)CC(=O)O)ccc2C2CCN(C(=O)OC(C)(C)C)CC2)cn1 (single isomer, unassigned) [Example 26]
130		CCc1ncc(Nc2cc([C@H](CC)CC(=O)O)ccc2C2CCN(C(=O)OC(C)(C)C)CC2)cn1 (single isomer, unassigned) [Example 29]
20		CCc1ncc(Nc2cc([C@@H](CC)CC(=O)O)ccc2C2CCN(C(=O)OC(C)(C)C)CC2)cn1 (single isomer, unassigned) [Example 31]
320		COC[C@@H](CC(=O)O)c1ccc(-c2ccc3c(c2)OCO3)c(Nc2ccc(C#N)cc2)c1 (single isomer, unassigned) [Example 34]
450		COC[C@H](CC(=O)O)c1ccc(-c2cnn(Cc3ccccc3)c2)c(Nc2ccc(C#N)cc2)c1 (single isomer, unassigned) [Example 44]
50		COC[C@H](CC(=O)O)c1ccc(-c2cnn(Cc3ccc(OC)cc3)c2)c(Nc2ccc(C#N)cc2)c1 (single isomer, unassigned) [Example 45]
≥ 1000	250 to 2000	CCOc1ncc(Nc2cc([C@H](CC)CC(=O)O)ccc2-c2cccc3[nH]ncc23)cn1 (single isomer, unassigned) [Example 50]

Further lines, the compound ahead of its results:

SMILES	IC50 (read-out: IDO Hela IC50) [nM]	IC50 [1] [nM]
CC[C@H](CC(=O)O)c1ccc(-c2cnn(C)c2)c(Nc2ccc(C#N)cc2)c1 (single isomer, unassigned) [Example 5]	110	
CC[C@H](CC(=O)O)c1ccc(-c2cnn(C)c2)c(Nc2cccc(Cl)c2)c1 (single isomer, unassigned) [Example 7]	≥ 1000	250 to 2000
CC[C@H](CC(=O)O)c1ccc(-c2cnn(C)c2)c(Nc2ccc(Cl)c(F)c2)c1 (single isomer, unassigned) [Example 9]	20	
CC[C@H](CC(=O)O)c1ccc(-c2cnn(C)c2)c(Nc2cccnc2)c1 (single isomer, unassigned) [Example 11]	≥ 1000	250 to 2000
CC[C@H](CC(=O)O)c1ccc(-c2cnn(C)c2)c(Nc2cnc(C)nc2)c1 (single isomer, unassigned) [Example 12]	≥ 1000	250 to 2000
CC[C@H](CC(=O)O)c1ccc(-c2cnn(C)c2)c(Nc2ccc(C(F)(F)F)cc2)c1 (single isomer, unassigned) [Example 14]	40	
CC[C@H](CC(=O)O)c1ccc(-c2cnn(C)c2)c(Nc2ccccn2)c1 (single isomer, unassigned) [Example 15]	≥ 1000	250 to 2000
CC[C@H](CC(=O)O)c1ccc(-c2cnn(C)c2)c(Nc2ccc(C#N)cn2)c1 (single isomer, unassigned) [Example 16]	≥ 1000	250 to 2000
CC[C@H](CC(=O)O)c1ccc(-c2c(C)noc2C)c(Nc2ccc(Cl)cc2)c1 (single isomer, unassigned) [Example 17]	10	
CC[C@H](CC(=O)O)c1ccc(-c2nc(C)cs2)c(Nc2ccc(Cl)cc2)c1 (single isomer, unassigned) [Example 19]	≥ 1000	250 to 2000
CC[C@H](CC(=O)O)c1ccc(-c2nnc(C)s2)c(Nc2ccc(Cl)cc2)c1 (single isomer, unassigned) [Example 22]	30	
CCOc1ncc(Nc2cc([C@H](CC)CC(=O)O)ccc2C2CCN(C(=O)OC(C)(C)C)CC2)cn1 (single isomer, unassigned) [Example 25]	20	
CC[C@H](CC(=O)O)c1ccc(C2CCN(C(=O)OC(C)(C)C)CC2)c(Nc2cnc(C)nc2)c1 (single isomer, unassigned) [Example 27]	820	
CC[C@@H](CC(=O)O)c1ccc(C2CCN(C(=O)OC(C)(C)C)CC2)c(Nc2cnc(C)nc2)c1 (single isomer, unassigned) [Example 28]	760	
CC[C@H](CC(=O)O)c1ccc(C2CCN(C(=O)OC(C)(C)C)CC2)c(Nc2ccc(C#N)cc2)c1 (single isomer, unassigned) [Example 30]		< 50
CC[C@@H](CC(=O)O)c1ccc(C2CCN(C(=O)OC(C)(C)C)CC2)c(Nc2ccc(C#N)cc2)c1 (single isomer, unassigned) [Example 32]		< 50
COC[C@@H](CC(=O)O)c1ccc(-c2cnn(C)c2)c(Nc2ccc(C#N)cc2)c1 (single isomer, unassigned) [Example 33, 3-(3-((4-cyanophenyl)amino)-4-(1-methyl-1H-pyrazol-4-yl)phenyl)-4-methoxybutanoic Acid]	≥ 1000	250 to 2000
COC[C@@H](CC(=O)O)c1ccc(-c2ccoc2)c(Nc2ccc(C#N)cc2)c1 (single isomer, unassigned) [Example 35]	10	
COC[C@@H](CC(=O)O)c1ccc(-c2cnn(Cc3ccc(OC)cc3)c2)c(Nc2ccc(C#N)cc2)c1 (single isomer, unassigned) [Example 36]	30	
COC[C@H](CC(=O)O)c1ccc(-c2ccc3c(c2)OCO3)c(Nc2ccc(C#N)cc2)c1 (single isomer, unassigned) [Example 38]	50	
COC[C@H](CC(=O)O)c1ccc(-c2ccoc2)c(Nc2ccc(C#N)cc2)c1 (single isomer, unassigned) [Example 39]	20	
COC[C@H](CC(=O)O)c1ccc(-c2ccc3c(c2)CCO3)c(Nc2ccc(C#N)cc2)c1 (single isomer, unassigned) [Example 40]	90	
COC[C@H](CC(=O)O)c1ccc(-c2cncnc2)c(Nc2ccc(C#N)cc2)c1 (single isomer, unassigned) [Example 43]	≥ 1000	250 to 2000
CCOc1ncc(Nc2cc([C@H](CC)CC(=O)O)ccc2-c2ccoc2)cn1 (single isomer, unassigned) [Example 46]	40	
CCOc1ncc(Nc2cc([C@H](CC)CC(=O)O)ccc2-c2cnn(Cc3ccc(OC)cc3)c2)cn1 (single isomer, unassigned) [Example 47]	10	
CCOc1ncc(Nc2cc([C@H](CC)CC(=O)O)ccc2-c2cnn(-c3ccc(F)cc3)c2)cn1 (single isomer, unassigned) [Example 48]	340	
CCOc1ncc(Nc2cc(C(CC)CC(=O)O)ccc2-c2ccc(OC)c(F)c2)cn1 (single isomer, unassigned) [Example 49]	30	
CCOc1ncc(Nc2cc([C@H](CC)CC(=O)O)ccc2-c2ccc3c(cnn3C)c2)cn1 (single isomer, unassigned) [Example 51]	150	
